Data: US8558002B2, “Sulfoximines as kinase inhibitors” (Allergan, Inc., priority 2006, dated 2013)

Columns and labels:
VEGFR2 [1] = molecular target: T1, VEGFR2 (Homo sapiens, UniProt P35968); experiment: VEGFR2 Kinase Assay (biochemical KDR kinase, poly-Glu-Tyr ELISA); set-up: 200-300 ng purified cytoplasmic domain KDR protein; purchased BPS Bioscience; details: purified cytoplasmic domain KDR protein, 2.7 μM ATP
Description: Biochemical KDR kinase assays were performed in 96 well microtiter plates that were coated overnight with 75 μg/well of poly-Glu-Tyr (4:1) in 10 mM Phosphate Buffered Saline (PBS), pH 7.4. The coated plates were washed with 2 mls per well PBS+0.05% Tween-20 (PBS-T), blocked by incubation with PBS containing 1% BSA, then washed with 2 mls per well PBS-T prior to starting the reaction. Reactions were carried out in […] reaction volumes containing 2.7 μM ATP in kinase buffer (50 mM Hepes buffer pH 7.4, 20 mM MgCl2, 0.1 mM MnCl2 and 0.2 mM Na3VO4). Test compounds were reconstituted in 100% DMSO and added to the reaction to give a final DMSO concentration of 5%. Reactions were initiated by the addition 20 ul per well of kinase buffer containing 200-300 ng purified cytoplasmic domain KDR protein (BPS Bioscience, San Diego, Calif.). Following a 15 minute incubation at 30° C., the reactions were washed 2 mls per well PBS-T. 100 μl of a monoclonal anti-phosphotyrosine antibody-peroxidase conjugate diluted 1:10,000 in PBS-T was added to the wells for 30 minutes. Following a 2 mls per well wash with PBS-Tween-20, 100 μl of O-Phenylenediamine Dihydrochloride in phosphate-citrate buffer, containing urea hydrogen peroxide, was added to the wells for 7-10 minutes as a colorimetric substrate for the peroxidase. The reaction was terminated by the addition of 100 μl of 2.5NH2SO4 to each well and read using a microplate ELISA reader set at 492 nm. IC50 values for compound inhibition were calculated directly from graphs of optical density (arbitrary units) versus compound concentration following subtraction of blank values.
Target sequence in this assay (P35968 786-1356 limits assumed): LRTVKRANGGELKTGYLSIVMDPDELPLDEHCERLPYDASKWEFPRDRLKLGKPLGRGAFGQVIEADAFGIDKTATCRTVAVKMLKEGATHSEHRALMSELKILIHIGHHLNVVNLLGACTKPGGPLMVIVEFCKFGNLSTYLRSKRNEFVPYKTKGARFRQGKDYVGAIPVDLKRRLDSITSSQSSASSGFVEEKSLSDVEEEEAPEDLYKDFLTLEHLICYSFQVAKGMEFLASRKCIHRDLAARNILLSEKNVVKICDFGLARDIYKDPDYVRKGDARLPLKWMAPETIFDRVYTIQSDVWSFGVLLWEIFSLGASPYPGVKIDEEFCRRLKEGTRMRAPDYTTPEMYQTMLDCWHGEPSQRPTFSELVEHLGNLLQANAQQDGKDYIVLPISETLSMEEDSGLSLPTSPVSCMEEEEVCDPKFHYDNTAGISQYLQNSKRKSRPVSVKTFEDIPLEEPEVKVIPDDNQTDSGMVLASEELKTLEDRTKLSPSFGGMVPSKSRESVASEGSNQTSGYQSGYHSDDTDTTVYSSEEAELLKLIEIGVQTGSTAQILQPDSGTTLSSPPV

PDGFRβ = molecular target: T2, PDGFRβ (Homo sapiens, UniProt P09619); experiment: PDGFRβ Kinase Assay (poly-Glu-Tyr ELISA); format: biochemical; details: purified cytoplasmic domain PDGFR-b protein, 36 μM ATP
T2 construct: 200-300 ng purified cytoplasmic domain PDGFR-b protein (Millipore); purchased Millipore
Description: Biochemical PDGFRβ kinase assays were performed in 96 well microtiter plates that were coated overnight with 75 μg of poly-Glu-Tyr (4:1) in 10 mM Phosphate Buffered Saline (PBS), pH 7.4. The coated plates were washed with 2 mls per well PBS+0.05% Tween-20 (PBS-T), blocked by incubation with PBS containing 1% BSA, then washed with 2 mls per well PBS-T prior to starting the reaction. Reactions were carried out in 100 μL reaction volumes containing 36 μM ATP in kinase buffer (50 mM Hepes buffer pH 7.4, 20 mM MgCl2, 0.1 mM MnCl2 and 0.2 mM Na3VO4). Test compounds were reconstituted in 100% DMSO and added to the reaction to give a final DMSO concentration of 5%. Reactions were initiated by the addition 20 ul per well of kinase buffer containing 200-300 ng purified cytoplasmic domain PDGFR-b protein (Millipore). Following a 60 minute incubation at 30° C., the reactions were washed 2 mls per well PBS-T. […] of a monoclonal anti-phosphotyrosine antibody-peroxidase conjugate diluted 1:10,000 in PBS-T was added to the wells for 30 minutes. Following a 2 mls per well wash with PBS-Tween-20, 100 μl of O-Phenylenediamine Dihydrochloride in phosphate-citrate buffer, containing urea hydrogen peroxide, was added to the wells for 7-10 minutes as a colorimetric substrate for the peroxidase. The reaction was terminated by the addition of 100 μl of 2.5N H2SO4 to each well and read using a microplate ELISA reader set at 492 nm. IC50 values for compound inhibition were calculated directly from graphs of optical density (arbitrary units) versus compound concentration following subtraction of blank values.

VEGFR2 [2] = molecular target: T1, VEGFR2; experiment: VEGFR2 Cellular Assay (FLIPR, VEGF induced increases in intracellular calcium in HUVEC); format: cell-based; set-up: host or cells: HUVEC; details: VEGF165 stimulation (10 ng/mL), Fluo-4
Description: Automated FLIPR (Fluorometric Imaging Plate Reader) technology was used to screen for inhibitors of VEGF induced increases in intracellular calcium levels in fluorescent dye loaded endothelial cells. HUVEC (human umbilical vein endothelial cells) (Clonetics) were seeded in 384-well fibronectin coated black-walled plates overnight @ 37° C./5% CO2. Cells were loaded with calcium indicator Fluo-4 for 45 minutes at 37° C. Cells were washed 2 times (El×405, Biotek Instruments) to remove extracellular dye. For screening, cells were pre-incubated with test agents for 30 minutes, at a single concentration (10 uM) or at concentrations ranging from 0.0001 to 10.0 uM followed by VEGF165 stimulation (10 ng/mL). Changes in fluorescence at 516 nm were measured simultaneously in all 384 wells using a cooled CCD camera. Data were generated by determining max-min fluorescence levels for unstimulated, stimulated, and drug treated samples. IC50 values for test compounds were calculated from % inhibition of VEGF stimulated responses in the absence of inhibitor.
Target sequence in this assay (P35968 20-1356): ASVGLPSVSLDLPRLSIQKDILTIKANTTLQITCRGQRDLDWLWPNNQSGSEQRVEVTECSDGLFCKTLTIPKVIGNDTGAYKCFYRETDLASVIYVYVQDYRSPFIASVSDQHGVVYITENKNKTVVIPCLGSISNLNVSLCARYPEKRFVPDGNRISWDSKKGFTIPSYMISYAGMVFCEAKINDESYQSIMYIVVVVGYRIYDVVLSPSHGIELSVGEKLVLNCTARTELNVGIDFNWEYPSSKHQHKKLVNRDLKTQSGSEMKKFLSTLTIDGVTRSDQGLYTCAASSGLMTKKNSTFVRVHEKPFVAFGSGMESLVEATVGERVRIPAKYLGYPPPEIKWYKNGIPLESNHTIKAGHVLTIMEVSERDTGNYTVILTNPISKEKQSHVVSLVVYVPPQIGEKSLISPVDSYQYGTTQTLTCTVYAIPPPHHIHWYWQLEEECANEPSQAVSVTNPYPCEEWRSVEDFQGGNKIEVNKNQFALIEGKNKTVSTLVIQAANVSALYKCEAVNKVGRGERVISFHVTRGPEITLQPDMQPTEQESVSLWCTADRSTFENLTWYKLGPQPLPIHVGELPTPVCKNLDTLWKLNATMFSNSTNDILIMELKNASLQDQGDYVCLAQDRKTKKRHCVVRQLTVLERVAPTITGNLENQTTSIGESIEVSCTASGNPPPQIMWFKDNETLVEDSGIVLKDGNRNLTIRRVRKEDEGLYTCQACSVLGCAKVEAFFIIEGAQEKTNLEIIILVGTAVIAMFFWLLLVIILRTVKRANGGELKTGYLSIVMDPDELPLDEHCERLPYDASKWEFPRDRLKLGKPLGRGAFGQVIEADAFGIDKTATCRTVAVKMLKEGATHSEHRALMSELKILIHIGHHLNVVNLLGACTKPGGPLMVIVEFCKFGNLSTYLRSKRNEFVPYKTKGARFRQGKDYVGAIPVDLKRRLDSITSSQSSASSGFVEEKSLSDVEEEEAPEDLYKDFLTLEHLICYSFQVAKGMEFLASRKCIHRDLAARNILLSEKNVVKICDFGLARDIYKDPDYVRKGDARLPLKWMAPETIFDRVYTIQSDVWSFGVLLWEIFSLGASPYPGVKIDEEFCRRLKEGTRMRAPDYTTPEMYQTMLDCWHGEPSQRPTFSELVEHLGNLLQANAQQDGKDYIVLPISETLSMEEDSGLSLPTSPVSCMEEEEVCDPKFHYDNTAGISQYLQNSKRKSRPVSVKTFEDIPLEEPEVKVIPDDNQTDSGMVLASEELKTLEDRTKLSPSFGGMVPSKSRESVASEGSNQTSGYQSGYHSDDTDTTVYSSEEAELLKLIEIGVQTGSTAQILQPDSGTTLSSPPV

T2 sequence (P09619 554-1106 limits assumed): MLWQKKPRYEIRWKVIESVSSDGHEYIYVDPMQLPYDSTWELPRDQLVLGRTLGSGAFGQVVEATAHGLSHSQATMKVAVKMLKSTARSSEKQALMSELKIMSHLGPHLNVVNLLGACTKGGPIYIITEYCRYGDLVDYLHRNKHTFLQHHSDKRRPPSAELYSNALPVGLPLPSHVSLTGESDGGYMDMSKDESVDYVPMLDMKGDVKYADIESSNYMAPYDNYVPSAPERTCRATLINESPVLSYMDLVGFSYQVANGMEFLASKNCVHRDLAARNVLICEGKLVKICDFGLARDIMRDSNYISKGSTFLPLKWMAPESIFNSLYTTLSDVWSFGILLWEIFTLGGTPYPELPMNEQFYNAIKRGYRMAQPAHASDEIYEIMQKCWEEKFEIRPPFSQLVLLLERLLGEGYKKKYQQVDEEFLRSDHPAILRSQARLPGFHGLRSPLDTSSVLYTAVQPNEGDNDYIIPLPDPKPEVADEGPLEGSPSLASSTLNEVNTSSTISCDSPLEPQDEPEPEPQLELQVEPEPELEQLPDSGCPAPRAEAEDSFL

Compound | IC50 (VEGFR2 [1]) [nM] | IC50 (PDGFRβ) [nM] | IC50 (VEGFR2 [2]) [nM]
COC(=O)CCCCS(=O)(CCCCC(=O)OC)=NC(=O)c1cnc(N)c(C#Cc2cccc(C(=O)Nc3cccc(C)c3)c2)c1 [Example 12, Dimethyl 5,5′-[N-({6-amino-5-[(3-{[(3-methylphenyl)amino]carbonyl}phenyl)ethynyl]pyridin-3-yl}carbonyl)sulfonimidoyl]dipentanoate] | 8 | 57 | 1
COC(=O)CCCCS(=O)(CCCCC(=O)OC)=NC(=O)c1cnc(N)c(C#Cc2cccc(NC(=O)c3ccc(F)c(Cl)c3)c2)c1 [Example 4, Dimethyl 5,5′-(N-{[6-amino-5-({3-[(3-chloro-4-fluorobenzoyl)amino]phenyl}ethynyl)pyridin-3-yl]carbonyl}sulfonimidoyl)dipentanoate] | 8 | 34 | 2
COC(=O)CCCCS(=O)(CCCCC(=O)OC)=NC(=O)c1cnc(N)c(C#Cc2cccc(NC(=O)c3cc(C(F)(F)F)ccc3F)c2)c1 [Example 10, Dimethyl 5,5′-[N-({6-amino-5-[(3-{[2-fluoro-5-(trifluoromethyl)benzoyl]amino}phenyl)ethynyl]pyridin-3-yl}carbonyl)sulfonimidoyl]dipentanoate] | 20 | 69 | 6
COC(=O)CCCCS(=O)(CCCCC(=O)OC)=NC(=O)c1cnc(N)c(C#Cc2cccc(C(=O)Nc3ccc(F)c(Cl)c3)c2)c1 [Example 15, Dimethyl 5,5′-[N-({6-amino-5-[(3-{[(3-chloro-4-fluorophenyl)amino]carbonyl}phenyl)ethynyl]pyridin-3-yl}carbonyl)sulfonimidoyl]dipentanoate] | 15 | 68 | 11
COC(=O)CCCCS(=O)(CCCCC(=O)OC)=NC(=O)c1cnc(N)c(C#Cc2cccc(C(=O)Nc3ccc(OC)c(Cl)c3)c2)c1 [Example 13, Dimethyl 5,5′-[N-({6-amino-5-[(3-{[(3-chloro-4-methoxyphenyl)amino]carbonyl}phenyl)ethynyl]pyridin-3-yl}carbonyl)sulfonimidoyl]dipentanoate] | 9 | 38 | 5
COC(=O)CCCCS(=O)(CCCCC(=O)OC)=NC(=O)c1cnc(N)c(C#Cc2cccc(NC(=O)c3cccc(C(F)(F)F)c3)c2)c1 [Example 5, Dimethyl 5,5′-[N-({6-amino-5-[(3-{[3-(trifluoromethyl)benzoyl]amino}phenyl)ethynyl]pyridin-3-yl}carbonyl)sulfonimidoyl]dipentanoate] | 10 | 10 | 3
COC(=O)CCCCS(=O)(CCCCC(=O)OC)=NC(=O)c1cnc(N)c(C#Cc2cccc(NC(=O)c3cccc(C)c3)c2)c1 [Example 1, Dimethyl 5,5′-(N-{[6-amino-5-({3-[(3 methylbenzoyl)amino]phenyl}ethynyl)pyridin-3-yl]carbonyl}sulfonimidoyl)dipentanoate] | 9 | 25 | < 1
COC(=O)CCCCS(=O)(CCCCC(=O)OC)=NC(=O)c1cnc(N)c(C#Cc2cccc(NC(=O)Nc3cc(C)ccc3F)c2)c1 [Example 18, Dimethyl 5,5′-{N-[(6-amino-5-{[3-({[(2-fluoro-5-methylphenyl)amino]carbonyl}amino)phenyl]ethynyl}pyridin-3-yl)carbonyl]sulfonimidoyl}dipentanoate] | 10 | – | 23
COC(=O)CCCCS(=O)(CCCCC(=O)OC)=NC(=O)c1cnc(N)c(C#Cc2cccc(NC(=O)c3cccc([S+](C)[O-])c3)c2)c1 (stereo not drawn) [Example 8, Dimethyl 5,5′-[N-({6-amino-5-[(3-{[3-(methylsulfinyl)benzoyl]amino}phenyl)ethynyl]pyridin-3-yl}carbonyl)sulfonimidoyl]dipentanoate] | 12 | – | 6
COC(=O)CCCCS(=O)(CCCCC(=O)OC)=NC(=O)c1cnc(N)c(C#Cc2cccc(NC(=O)c3cccc(SC)c3)c2)c1 [Example 3, Dimethyl 5,5′-[N-({6-amino-5-[(3-{[3-(methylthio)benzoyl]amino}phenyl)ethynyl]pyridin-3-yl}carbonyl)sulfonimidoyl]dipentanoate] | 5 | – | 4
